In PubChem BioAssay (NCI):
Several values for one entry are separate records, joined by “and”; a condition that tells them apart may be missing. Equal values may be shown once.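 In this assay, cells in 96-well plates receive the compound at five concentrations for 48 hours. Endpoints are linearly interpolated between the surrounding concentrations. GI50 marks 50% less growth. Definition used: TGI = concentration required for complete inhibition of growth.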

What was measured:
Assay in all cases: NCI tumour cell line growth inhibition, 48 h
A498 renal = tested on: A498 renal
A549 NSCLC = tested on: A549 NSCLC
HCT-116 colon = tested on: HCT-116 colon
HCT-15 colon = tested on: HCT-15 colon
HS 578T breast = tested on: HS 578T breast
K-562 leukemia = tested on: K-562 leukemia
MALME-3M melanoma = tested on: MALME-3M melanoma
MOLT-4 leukemia = tested on: MOLT-4 leukemia
OVCAR-8 ovarian = tested on: OVCAR-8 ovarian
SF-295 CNS = tested on: SF-295 CNS

| SMILES | GI50 (A498 renal) | TGI (A498 renal) [µM] | GI50 (A549 NSCLC) [µM] | TGI (A549 NSCLC) [µM] | GI50 (HCT-116 colon) | TGI (HCT-116 colon) [µM] | GI50 (HCT-15 colon) | TGI (HCT-15 colon) [µM] | GI50 (HS 578T breast) | TGI (HS 578T breast) [µM] | GI50 (K-562 leukemia) | TGI (K-562 leukemia) [µM] | GI50 (MALME-3M melanoma) [µM] | TGI (MALME-3M melanoma) [µM] | GI50 (MOLT-4 leukemia) | TGI (MOLT-4 leukemia) [µM] | GI50 (OVCAR-8 ovarian) | TGI (OVCAR-8 ovarian) [µM] | GI50 (SF-295 CNS) | TGI (SF-295 CNS) [µM] |
| --- | --- | --- | --- | --- | --- | --- | --- | --- | --- | --- | --- | --- | --- | --- | --- | --- | --- | --- | --- | --- |
| Cc1ccc(Cl)c(NS(=O)(=O)c2ccc(-c3cnc(C4CC4)o3)cc2)c1 | 0.0286 µM | 0.303 | 0.146 | > 100 | 0.0537 µM | > 36.8 | 0.055 µM | 18.2 | 0.0729 µM | > 69.6 | 0.0479 µM | > 100 | 11 | 49.7 | 0.166 µM | > 48.3 | 0.258 µM | > 58.9 | 0.0377 µM | 0.182 |
| COc1ccc(C(=O)c2cc3c(N)c(C(=O)Nc4cccc(Br)c4C)sc3nc2C)cc1 | 0.0238 µM | 0.26 | 0.132 | > 100 | 0.038 µM |  | 0.0489 µM | > 100 | 0.082 µM | > 100 | 0.0375 µM | > 100 | 0.0542 | > 100 | 0.109 µM | > 100 | 0.205 µM | > 100 | 0.0405 µM |  |
| CC[C@H](C)[C@H](NC(=O)[C@H]1CCCCN1C)C(=O)N(C)[C@H](C[C@@H](OC(C)=O)c1cccc(C(=O)N[C@@H](Cc2ccccc2)C[C@H](C)C(=O)O)n1)C(C)C | 0.00184 µM and < 0.0025 µM |  |  | > 25 | 0.00225 µM and 0.0025 µM | 4.16 | 0.0064 µM and 0.0025 µM | > 25 | 0.002 µM and 0.0025 µM | > 25 | 0.000539 µM and 0.0025 µM | > 25 | 1.95 | > 25 | 0.00364 µM and 0.0025 µM | > 25 | 0.00542 µM and 0.0025 µM | > 25 | 0.00275 µM and < 0.0025 µM | < 0.0025 |
| COc1ccc(C2C(C#N)=C(N)Oc3c2sc2c(Br)cccc32)cc1 (centres undefined) | 1.37 µM | 13.9 | 4.69 | 21 | 1.93 µM | 12.3 | 0.93 µM | 10.7 | 3.3 µM | 36.1 | 0.404 µM | 5.79 | 4.75 | 25.3 | 1.55 µM | 6.78 | 4.99 µM | 25.3 | 0.907 µM | 6.54 |
| OC1CCCC2CCC[N-]C12.OC1CCCC2CCC[N-]C12.[O]=[V][OH] (centres undefined) | 11.6 µM | 97.5 | 5.23 | > 100 | 2.66 µM | 11.5 | 0.789 µM | 12.5 | 21.2 µM | > 100 | 1.93 µM | 14.4 | 5.03 | > 100 | 1.23 µM | 10.6 | 2.98 µM | > 100 | 9.84 µM | 76.9 |
| CCOc1ccc(C(C[N+](=O)[O-])Sc2ccccc2N)cc1 (centres undefined) | 12.5 µM | 25 | 7.82 | 23 | 1.7 µM | 3.36 | 2.01 µM | 4.75 | 3.1 µM | 18.3 | 2.97 µM | 11.9 | 12.3 | 24.7 | 3.73 µM | 16.9 | 8.97 µM | 22.6 | 4.39 µM | 17.3 |
| O=C(Nc1cc(Cl)ccc1O)c1ccccc1Nc1ccnc(C(F)(F)F)c1 | 2.25 µM | 6.4 | 3.38 | 13.1 | 2.2 µM | 5.63 | 3.55 µM | > 100 | 2.42 µM | 8.54 | 3.65 µM | > 100 | 2.2 | 7.39 | 2.52 µM | 6.94 | 3.43 µM | 16.3 | 2.5 µM | 6.78 |
| O=C(NCCOCCOCCOCCNC(=O)c1cc2c(o1)C(=O)c1ccccc1C2=O)NC12CC3CC(CC(C3)C1)C2 | 1.69 µM | 3.3 | 0.517 | 2.34 | 2.4 µM | 8.95 | 1.58 µM | 3.68 | 2.18 µM | 6.85 | 1.98 µM | 8.91 | 0.191 | 0.489 | 2.87 µM | 8.04 | 1.44 µM | 8.34 | 1.65 µM | 3.07 |
| CN(C)Cc1ccc(NC(=O)c2cncc(C#Cc3cnc(N)c4ncccc34)c2)cc1F | 6 µM | 29 | 2.57 | 7.11 | 1.8 µM | 3.48 | 1.73 µM | 3.35 | 7.85 µM | 27.7 | 0.0566 µM | 1.85 | 1.61 | 3.19 | 2.21 µM | 5.3 | 2.31 µM | 5.02 | 10.6 µM | 26.5 |
| CCCCOc1ccc(/C=N/Nc2cc(C)nc3ccc(Br)cc23)cc1 | 1.48 µM | 2.85 | 1.88 | 3.52 | 1.77 µM | 3.31 | 1.61 µM | 3.05 | 1.99 µM | 4.71 | 1.71 µM | 3.97 | 1.91 | 3.4 | 1.91 µM | 4.11 | 1.77 µM | 3.53 | 1.82 µM | 3.36 |
| COc1ccccc1[As]=[As]c1ccccc1OC (centres undefined) | 0.0622 µM | 0.184 | 0.0973 | 0.289 | 0.0245 µM | 0.0641 | 0.0288 µM | 0.118 | 0.0378 µM | 0.334 | 0.0324 µM |  | 0.0443 | 0.145 | 0.0382 µM | 0.204 | 0.0507 µM | 0.194 | 0.104 µM | 0.264 |
| O=C(Nc1cc(F)c(F)cc1C(=O)O)c1ccc(-n2ccnc2)nn1 | 13 µM | 82 | > 100 | > 100 | > 100 µM | > 100 | > 100 µM | > 100 | > 100 µM | > 100 | 80.5 µM | > 100 | > 100 | > 100 | > 100 µM | > 100 | > 100 µM | > 100 | > 100 µM | > 100 |
| Oc1ccc2ccccc2c1C=NCc1c(O)ccc2ccccc12 |  | 74.5 |  | > 100 |  | > 100 |  | > 100 |  | > 100 |  | > 100 |  | > 100 |  | > 100 |  | > 100 |  | > 100 |
| COc1ccc2c(O)c(/C=C3\N=Nc4ncccc43)oc2c1C[C@@H]1CCNC[C@H]1F | 1.39 µM | 3.66 | 1.31 | 3.93 | 0.118 µM | 1.21 | 0.234 µM | 1.87 | 1.58 µM | 5.78 | 0.442 µM | 1.79 | 1.89 | 5.23 | 0.181 µM | 0.544 | 0.277 µM | 1.6 | 0.723 µM | 4.03 |
| COc1cc2c(c(OC)c1OC)-c1ccc(SC)c(=O)cc1[C@@H](NC(=O)C(F)(F)F)CC2 |  | 1.86 |  | > 100 |  | 4.42 |  | > 15.8 |  | 71.1 |  | > 85.2 |  | > 88.1 |  | > 27.2 |  | > 72.6 |  | < 0.01 |
| CS(=O)(=O)c1cccc(Nc2ncc3cc(-c4ccccc4Cl)ccc3n2)c1 | 1.75 µM | 12.1 | 1.78 | > 33.3 | 1.01 µM | 4.51 | 0.821 µM | > 33.3 | 1.23 µM | 10.3 | 0.165 µM | > 33.3 | 1.22 | 9.84 | 1.42 µM | 14.6 | 1.44 µM | 32 | 1.6 µM | > 33.3 |
| O=C(Nc1cc(Cl)cc(Cl)c1)c1cccc(NC2=C(Cl)C(=O)N(Cc3ccccc3)C2=O)c1 | 22.2 µM | 50.7 | 36.3 | > 100 | 12 µM | > 100 | 24 µM | > 100 | 32.7 µM | > 100 | 7.89 µM | > 100 | 30.7 | 97.4 | 4.15 µM | > 100 | 41.7 µM | > 100 | 34.2 µM | > 100 |
| C#CC1(O)C(COP(=O)(O)OCC2OC(n3cc(F)c(=O)[nH]c3=O)CC2O)OC(n2ccc(N)nc2=O)C1O (centres undefined) | < 0.0134 µM | 0.199 | < 0.01 | > 100 | < 0.01 µM | > 100 | < 0.0166 µM | > 100 | < 0.0265 µM | 8.44 | < 0.01 µM | > 100 | < 0.0118 | 0.444 | < 0.01 µM | 0.0124 | < 0.01 µM |  | < 0.01 µM | 4.26 |
| CCN(CC)CCN1c2nc3ccccc3cc2Sc2cc3ccccc3nc21 | 3.08 µM | 8.62 | 2.34 | 6.12 | 1.4 µM | 2.78 | 1.58 µM | 3.76 | 1.73 µM | 4.61 | 3.04 µM | > 100 | 1.57 | 3.12 | 2.31 µM | 6.6 | 2.43 µM | 8.15 | 1.56 µM | 3.45 |
| C=C1C(=O)O[C@H]2[C@H]1CC/C(COC(=O)/C=C\C(=O)NCc1ccc(Cn3c(=O)sn(CCI)c3=O)cc1)=C\CC[C@@]1(C)O[C@@H]21 | 13.9 µM | 27 | 14.8 | 30.5 | 1.93 µM | 4.75 | 2.1 µM | 5.42 | 14 µM | 73.6 | 2.45 µM | > 100 | 1.85 | 3.63 | 2.24 µM | 6.32 | 2.78 µM | 8.76 | 18.9 µM | 33.4 |
| CCC(C)C1=C(O)[N+]2([O-])Oc3ccc(C4=C(O)C(=O)C(c5ccc(O)cc5)=C(O)C4=O)cc3OC2(C(C)CC)C(=O)N1O (centres undefined) | 5.24 µM | 41.9 | 9.35 | > 100 | 5.02 µM | > 100 | 5.82 µM | > 100 | 7.24 µM | > 100 | 8.03 µM | > 100 | 14.7 | 48.2 | 11 µM | 41.8 | 6.34 µM | > 100 | 13.9 µM | > 100 |
| CCC(=O)N1C/C(=C/c2ccc(Br)cc2)C(=O)/C(=C/c2ccc(Br)cc2)C1 | 1.43 µM | 3.06 | 0.745 | 10.8 | < 0.0417 µM | 0.311 | 0.295 µM | 1.31 | 0.644 µM | 4.12 | 0.183 µM | 6.1 | 1.69 | 3.63 | 1.06 µM | 5.69 | 0.499 µM | 2.88 | 1.6 µM | 4.3 |
| CCCCCCCCCCNCCSS(=O)(=O)O | 5.48 µM | 19.9 | 2.1 | 5.27 | 2.01 µM | 3.85 | 3.97 µM | 17 | 1.67 µM | 3.6 | 2.61 µM | 7.28 | 5.83 | 19.6 | 2.06 µM | 4.92 | 2.12 µM | 4.68 | 1.83 µM | 3.65 |
| CCOC(=O)c1c(C)nc2c(c1N)/C(=C/c1ccccn1)C(=O)N2Cc1ccccc1 | 1.54 µM | > 50 | 2.52 | > 50 | 0.847 µM | 1.62 | 1.07 µM | 2.63 | 2.82 µM | > 50 | 1.77 µM | > 50 | 0.937 | 2.2 | 1.72 µM | > 50 | 1.65 µM | > 50 | 1.9 µM | > 50 |
| C#C[C@@]1(O)[C@@H](CO)O[C@@H](n2cc(C(F)(F)F)c3c(N)ncnc32)[C@@H]1O | 0.168 µM | 0.533 | 0.871 | > 19.7 | 0.363 µM | > 100 | 0.679 µM | > 25.5 | 1.26 µM | 6.23 | 0.291 µM | 0.909 | 1.19 | 4.84 | 0.29 µM | 1.33 | 0.243 µM | > 100 | 2.18 µM | 8.09 |
